Reference: publication PMC10879502, “Linking ATP and allosteric sites to achieve superadditive binding with bivalent EGFR kinase inhibitors” (Communications Chemistry, 2024)

How the values were obtained:
EGFR(L747-E749del+A750P) = EGFR(L747-E749del+A750P) (Homo sapiens, UniProt P00533, A750P/DEL747-749); experiment: KINOMEscan; assay type: binding; conditions: 1 μM
ASK2 = ASK2 (Homo sapiens, UniProt O95382); experiment: KINOMEscan; assay type: binding; conditions: 1 μM
GSK3B = target: T1, GSK3B (Homo sapiens, UniProt P49841); experiment: KINOMEscan; assay type: binding; conditions: 1 μM
T1 construct: purchased Eurofins DiscoverX Corporation
T1 sequence (P49841 whole entry): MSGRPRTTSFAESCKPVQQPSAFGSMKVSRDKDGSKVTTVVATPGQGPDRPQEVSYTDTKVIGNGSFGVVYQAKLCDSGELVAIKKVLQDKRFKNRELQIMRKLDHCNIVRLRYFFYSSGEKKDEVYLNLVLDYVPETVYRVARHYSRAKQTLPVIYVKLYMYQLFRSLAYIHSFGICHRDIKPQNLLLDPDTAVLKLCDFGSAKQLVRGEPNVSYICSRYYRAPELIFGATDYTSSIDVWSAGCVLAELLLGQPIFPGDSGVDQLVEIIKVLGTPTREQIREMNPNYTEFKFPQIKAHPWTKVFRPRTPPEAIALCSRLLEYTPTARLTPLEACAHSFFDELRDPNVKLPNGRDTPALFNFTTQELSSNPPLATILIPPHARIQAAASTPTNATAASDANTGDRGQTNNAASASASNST

BUB1 = target: T2, BUB1 (Homo sapiens, UniProt O43683); experiment: KINOMEscan; assay type: binding; conditions: 1 μM
T2 construct: purchased Eurofins DiscoverX Corporation (KINOMEscan)

MST2 = target: T3, MST2 (Homo sapiens, UniProt Q13188); experiment: KINOMEscan; assay type: binding; conditions: 1 μM
T3 construct: purchased Eurofins DiscoverX Corporation

BTK = target: T4, BTK (Homo sapiens, UniProt Q06187); experiment: KINOMEscan; assay type: binding; conditions: 1 μM
T4 construct: purchased Eurofins DiscoverX Corporation (KINOMEscan)

CAMK2D = target: T5, CAMK2D (Homo sapiens, UniProt Q13557); experiment: KINOMEscan; assay type: binding; conditions: 1 μM
T5 construct: purchased Eurofins DiscoverX Corporation (KINOMEscan)

BMPR1B = target: T6, BMPR1B (Homo sapiens, UniProt O00238); experiment: KINOMEscan; assay type: binding; conditions: 1 μM
T6 construct: purchased Eurofins DiscoverX Corporation (KINOMEscan)

WNK1 = WNK1 (Homo sapiens, UniProt Q9H4A3); experiment: KINOMEscan; assay type: binding; conditions: 1 μM
EPHB4 = EPHB4 (Homo sapiens, UniProt P54760); experiment: KINOMEscan; assay type: binding; conditions: 1 μM
MST3 = target: T7, MST3 (Homo sapiens, UniProt Q9Y6E0); experiment: KINOMEscan; assay type: binding; conditions: 1 μM
T7 construct: purchased Eurofins DiscoverX Corporation
T7 sequence (Q9Y6E0 whole entry): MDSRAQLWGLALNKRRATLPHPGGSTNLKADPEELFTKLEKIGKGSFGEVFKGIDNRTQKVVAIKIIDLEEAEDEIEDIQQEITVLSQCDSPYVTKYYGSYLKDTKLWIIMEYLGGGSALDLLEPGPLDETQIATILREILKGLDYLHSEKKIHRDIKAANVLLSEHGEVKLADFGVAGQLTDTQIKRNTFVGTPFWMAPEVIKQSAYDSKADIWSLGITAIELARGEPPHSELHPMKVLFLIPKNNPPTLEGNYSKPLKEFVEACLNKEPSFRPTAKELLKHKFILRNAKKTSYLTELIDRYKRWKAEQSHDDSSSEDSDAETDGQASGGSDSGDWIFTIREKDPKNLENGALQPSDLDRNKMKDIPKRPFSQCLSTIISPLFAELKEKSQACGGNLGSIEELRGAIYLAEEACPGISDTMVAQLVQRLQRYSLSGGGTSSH

ULK3 = ULK3 (Homo sapiens, UniProt Q6PHR2); experiment: KINOMEscan; assay type: binding; conditions: 1 μM
MKNK2 = target: T8, MKNK2 (Homo sapiens, UniProt Q9HBH9); experiment: KINOMEscan; assay type: binding; conditions: 1 μM
T8 construct: purchased Eurofins DiscoverX Corporation
T8 sequence (Q9HBH9 whole entry): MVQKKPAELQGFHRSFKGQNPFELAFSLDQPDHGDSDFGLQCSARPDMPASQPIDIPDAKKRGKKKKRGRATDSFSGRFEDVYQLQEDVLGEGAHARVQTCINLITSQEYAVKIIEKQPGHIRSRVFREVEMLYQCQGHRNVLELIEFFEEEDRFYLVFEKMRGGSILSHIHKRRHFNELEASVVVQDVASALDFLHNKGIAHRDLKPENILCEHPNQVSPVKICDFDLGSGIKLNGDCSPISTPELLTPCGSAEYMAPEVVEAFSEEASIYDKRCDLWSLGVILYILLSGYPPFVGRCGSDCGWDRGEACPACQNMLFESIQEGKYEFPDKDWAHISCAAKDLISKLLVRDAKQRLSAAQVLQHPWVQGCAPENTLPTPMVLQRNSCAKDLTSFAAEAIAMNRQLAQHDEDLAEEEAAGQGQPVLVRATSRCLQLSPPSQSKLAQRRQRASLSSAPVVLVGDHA

JNK3 = target: T9, JNK3 (Homo sapiens, UniProt P53779); experiment: KINOMEscan; assay type: binding; conditions: 1 μM
T9 construct: purchased Eurofins DiscoverX (KINOMEscan)

MLCK = target: T10, MLCK (Homo sapiens, UniProt Q32MK0); experiment: KINOMEscan; assay type: binding; conditions: 1 μM
T10 construct: purchased Eurofins DiscoverX Corporation
T10 sequence (Q32MK0 whole entry): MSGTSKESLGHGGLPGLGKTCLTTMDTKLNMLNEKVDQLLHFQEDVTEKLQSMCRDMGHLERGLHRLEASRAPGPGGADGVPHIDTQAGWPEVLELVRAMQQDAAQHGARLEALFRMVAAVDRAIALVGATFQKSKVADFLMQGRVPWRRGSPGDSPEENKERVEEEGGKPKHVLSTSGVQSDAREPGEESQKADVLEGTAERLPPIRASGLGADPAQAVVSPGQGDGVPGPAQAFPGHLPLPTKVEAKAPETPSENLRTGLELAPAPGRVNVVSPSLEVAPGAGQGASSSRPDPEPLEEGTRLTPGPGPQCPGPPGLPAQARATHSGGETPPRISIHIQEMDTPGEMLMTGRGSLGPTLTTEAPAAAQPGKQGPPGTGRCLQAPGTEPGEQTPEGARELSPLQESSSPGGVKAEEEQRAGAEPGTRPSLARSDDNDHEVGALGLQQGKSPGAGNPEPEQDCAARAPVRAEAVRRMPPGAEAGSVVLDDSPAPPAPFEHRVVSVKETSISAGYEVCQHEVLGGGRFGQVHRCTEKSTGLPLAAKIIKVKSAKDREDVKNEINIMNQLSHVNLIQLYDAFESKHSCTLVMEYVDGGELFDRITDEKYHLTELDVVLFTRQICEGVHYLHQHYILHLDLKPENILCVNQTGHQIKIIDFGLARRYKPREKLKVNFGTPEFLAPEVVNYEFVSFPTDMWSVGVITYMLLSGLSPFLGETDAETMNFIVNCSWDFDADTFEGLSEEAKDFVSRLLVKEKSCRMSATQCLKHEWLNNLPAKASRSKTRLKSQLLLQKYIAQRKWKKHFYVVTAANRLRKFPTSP

HIPK1 = target: T11, HIPK1 (Homo sapiens, UniProt Q86Z02); experiment: KINOMEscan; assay type: binding; conditions: 1 μM
T11 construct: purchased Eurofins DiscoverX Corporation
T11 sequence (Q86Z02 whole entry): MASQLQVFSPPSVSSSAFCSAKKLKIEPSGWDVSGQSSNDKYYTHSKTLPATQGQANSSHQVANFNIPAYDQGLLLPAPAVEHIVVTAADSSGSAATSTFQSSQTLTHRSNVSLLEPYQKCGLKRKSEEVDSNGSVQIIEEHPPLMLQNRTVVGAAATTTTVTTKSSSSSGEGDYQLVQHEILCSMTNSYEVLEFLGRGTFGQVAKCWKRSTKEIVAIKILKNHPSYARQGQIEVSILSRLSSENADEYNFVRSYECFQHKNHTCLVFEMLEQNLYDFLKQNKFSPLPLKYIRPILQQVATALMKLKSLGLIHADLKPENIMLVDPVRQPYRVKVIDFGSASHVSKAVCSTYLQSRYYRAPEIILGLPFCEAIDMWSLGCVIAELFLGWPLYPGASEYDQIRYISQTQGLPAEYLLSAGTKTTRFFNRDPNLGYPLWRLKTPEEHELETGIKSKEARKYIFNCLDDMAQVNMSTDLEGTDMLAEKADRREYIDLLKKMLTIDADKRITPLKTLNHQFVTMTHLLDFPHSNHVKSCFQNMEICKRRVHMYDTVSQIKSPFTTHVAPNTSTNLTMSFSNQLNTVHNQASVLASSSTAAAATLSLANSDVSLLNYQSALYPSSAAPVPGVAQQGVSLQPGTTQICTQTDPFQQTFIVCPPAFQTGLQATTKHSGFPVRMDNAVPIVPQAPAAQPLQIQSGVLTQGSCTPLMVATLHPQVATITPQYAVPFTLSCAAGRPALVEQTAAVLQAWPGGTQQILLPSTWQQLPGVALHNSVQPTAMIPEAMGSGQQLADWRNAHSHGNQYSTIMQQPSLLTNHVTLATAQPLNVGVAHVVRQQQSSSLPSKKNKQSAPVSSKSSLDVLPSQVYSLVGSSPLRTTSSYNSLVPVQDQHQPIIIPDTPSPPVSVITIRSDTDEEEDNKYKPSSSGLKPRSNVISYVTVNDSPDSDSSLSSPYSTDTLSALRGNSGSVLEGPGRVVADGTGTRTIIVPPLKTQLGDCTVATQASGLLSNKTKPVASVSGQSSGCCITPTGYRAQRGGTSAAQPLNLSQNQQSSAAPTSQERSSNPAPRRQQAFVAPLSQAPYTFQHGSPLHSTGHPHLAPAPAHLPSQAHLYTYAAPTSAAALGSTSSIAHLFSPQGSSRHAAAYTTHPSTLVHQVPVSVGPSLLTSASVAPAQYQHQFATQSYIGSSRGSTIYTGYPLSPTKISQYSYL

YSK1 = YSK1 (Homo sapiens, UniProt O00506); experiment: KINOMEscan; assay type: binding; conditions: 1 μM
[1] = test system: HCC827 cells (exon 19 del); experiment: MTT antiproliferative activity assay; assay type: cell-based, human
Description: (§1) Cells were dosed with inhibitors to a final DMSO 0.5% in triplicate for 37 °C for 72 h. Cellular inhibition of growth was assessed by MTT viability assay according to the manufactures protocol (OZ Biosciences). […] Ba/F3 cells were all cultured in RPMI1640 media with 10% fetal bovine serum and 1% penicillin and streptomycin. The Ba/F3 cell lines were tested negative for Mycoplasma using Mycoplasma Plus PCR Primer Set (Agilent) and were passaged and/or used for no longer than 4 weeks for all experiments. Assay reagents were purchased from MilliporeSigma (Cat# R7017-5G). Ba/F3 cells were plated and treated with increasing concentrations of inhibitors in triplicate for 72 h. Compounds were dispensed using the Tecan D300e Digital Dispenser. […] All experiments were repeated at least 3 times and values were reported as an average with standard deviation.

[2] = test system: H1975 cells (L858R/T790M); experiment: MTT antiproliferative activity assay; assay type: cell-based, human
Description: as §1

PIKFYVE = PIKFYVE (Homo sapiens, UniProt Q9Y2I7); experiment: KINOMEscan; assay type: binding; conditions: 1 μM
MAPKAPK2 = target: T12, MAPKAPK2 (Homo sapiens, UniProt P49137); experiment: KINOMEscan; assay type: binding; conditions: 1 μM
T12 construct: purchased Eurofins DiscoverX Corporation

SIK = SIK (Homo sapiens, UniProt P57059); experiment: KINOMEscan; assay type: binding; conditions: 1 μM
Sequence of SIK (P57059 whole entry): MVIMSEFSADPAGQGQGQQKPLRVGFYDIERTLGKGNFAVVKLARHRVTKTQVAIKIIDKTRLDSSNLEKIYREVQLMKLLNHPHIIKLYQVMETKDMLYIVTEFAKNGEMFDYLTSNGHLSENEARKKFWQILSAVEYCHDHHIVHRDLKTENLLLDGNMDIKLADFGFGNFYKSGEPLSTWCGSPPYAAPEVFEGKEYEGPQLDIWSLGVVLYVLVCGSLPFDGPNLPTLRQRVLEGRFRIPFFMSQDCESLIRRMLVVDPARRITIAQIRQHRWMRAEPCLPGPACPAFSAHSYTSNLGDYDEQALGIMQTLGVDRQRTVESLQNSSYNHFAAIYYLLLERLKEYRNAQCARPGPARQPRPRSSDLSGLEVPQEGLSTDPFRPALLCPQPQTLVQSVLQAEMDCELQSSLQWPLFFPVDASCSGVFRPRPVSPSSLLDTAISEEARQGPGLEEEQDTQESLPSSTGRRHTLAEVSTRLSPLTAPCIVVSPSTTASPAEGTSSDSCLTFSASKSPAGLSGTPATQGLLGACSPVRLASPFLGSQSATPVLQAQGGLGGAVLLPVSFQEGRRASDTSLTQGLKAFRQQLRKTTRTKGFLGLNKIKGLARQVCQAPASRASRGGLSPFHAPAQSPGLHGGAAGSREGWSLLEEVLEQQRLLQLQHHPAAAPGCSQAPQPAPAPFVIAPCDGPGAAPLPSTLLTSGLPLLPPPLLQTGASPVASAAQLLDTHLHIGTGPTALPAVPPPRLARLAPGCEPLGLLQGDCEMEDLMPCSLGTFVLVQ

HCK = target: T13, HCK (Homo sapiens, UniProt P08631); experiment: KINOMEscan; assay type: binding; conditions: 1 μM
T13 construct: purchased Eurofins DiscoverX Corporation

GCN2(Kin.Dom.2+S808G) = target: T14, GCN2(Kin.Dom.2+S808G) (Homo sapiens, UniProt Q9P2K8, S808G); experiment: KINOMEscan; assay type: binding; conditions: 1 μM
T14 construct: GCN2(Kin.Dom.2+S808G); purchased Eurofins DiscoverX Corporation

DAPK2 = target: T15, DAPK2 (Homo sapiens, UniProt Q9UIK4); experiment: KINOMEscan; assay type: binding; conditions: 1 μM
T15 construct: purchased Eurofins DiscoverX Corporation

MLK1 = target: T16, MLK1 (Homo sapiens, UniProt P80192); experiment: KINOMEscan; assay type: binding; conditions: 1 μM
T16 construct: purchased Eurofins DiscoverX Corporation

CLK2 = CLK2 (Homo sapiens, UniProt P49760); experiment: KINOMEscan; assay type: binding; conditions: 1 μM
KIT = target: T17, KIT (Homo sapiens, UniProt P10721); experiment: KINOMEscan; assay type: binding; conditions: 1 μM
T17 construct: purchased Eurofins DiscoverX (KINOMEscan)

FLT3(D835Y) = FLT3(D835Y) (Homo sapiens, UniProt P36888, D835Y); experiment: KINOMEscan; assay type: binding; conditions: 1 μM
RET(V804L) = RET(V804L) (Homo sapiens, UniProt P07949, V804L); experiment: KINOMEscan; assay type: binding; conditions: 1 μM
FGR = FGR (Homo sapiens, UniProt P09769); experiment: KINOMEscan; assay type: binding; conditions: 1 μM
Sequence of FGR (P09769 whole entry): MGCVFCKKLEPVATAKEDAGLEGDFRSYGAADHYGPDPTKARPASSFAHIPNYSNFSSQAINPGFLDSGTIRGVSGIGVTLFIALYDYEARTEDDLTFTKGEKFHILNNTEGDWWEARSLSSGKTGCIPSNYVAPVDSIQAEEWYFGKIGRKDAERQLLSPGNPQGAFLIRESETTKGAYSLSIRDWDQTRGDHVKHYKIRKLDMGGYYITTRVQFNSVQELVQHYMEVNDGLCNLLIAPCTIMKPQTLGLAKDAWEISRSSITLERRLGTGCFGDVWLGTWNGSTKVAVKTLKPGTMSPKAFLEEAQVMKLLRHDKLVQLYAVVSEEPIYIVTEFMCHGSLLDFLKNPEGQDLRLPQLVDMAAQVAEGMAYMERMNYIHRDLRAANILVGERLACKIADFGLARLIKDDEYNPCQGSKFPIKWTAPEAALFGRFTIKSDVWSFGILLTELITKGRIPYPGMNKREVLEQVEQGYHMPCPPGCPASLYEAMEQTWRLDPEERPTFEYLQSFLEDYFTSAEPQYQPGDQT

MEK6 = target: T18, MEK6 (Homo sapiens, UniProt P52564); experiment: KINOMEscan; assay type: binding; conditions: 1 μM
T18 construct: purchased Eurofins DiscoverX Corporation
T18 sequence (P52564 whole entry): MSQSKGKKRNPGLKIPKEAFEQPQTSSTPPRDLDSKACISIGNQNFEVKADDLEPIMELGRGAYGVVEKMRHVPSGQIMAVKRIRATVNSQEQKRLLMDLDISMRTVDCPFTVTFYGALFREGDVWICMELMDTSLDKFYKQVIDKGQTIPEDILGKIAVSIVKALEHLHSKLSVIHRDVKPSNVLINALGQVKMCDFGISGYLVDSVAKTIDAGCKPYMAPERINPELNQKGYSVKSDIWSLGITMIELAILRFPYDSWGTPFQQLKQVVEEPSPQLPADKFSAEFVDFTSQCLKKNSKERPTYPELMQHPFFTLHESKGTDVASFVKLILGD

C=CC(=O)Nc1ccc(OC)c(Nc2cc(-c3[nH]c(CC)nc3-c3cccc(NC(=O)c4cccc5c4NC(=O)c4ccccc4N5)c3)ccn2)c1 [Compound 4]
POC (EGFR(L747-E749del+A750P)): 8% of control
POC (ASK2): 100% of control
POC (GSK3B): 100% of control
POC (BUB1): 100% of control
POC (MST2): 14% of control
POC (BTK): 54% of control
POC (CAMK2D): 88% of control
POC (BMPR1B): 100% of control
POC (WNK1): 100% of control
POC (EPHB4): 100% of control
POC (MST3): 73% of control
POC (ULK3): 100% of control
POC (MKNK2): 100% of control
POC (JNK3): 53% of control
POC (MLCK): 86% of control
POC (HIPK1): 51% of control
POC (YSK1): 76% of control
less potent than AZD9291 ([1]; HCC827): ~ 60 fold
antiproliferative active concentration ([1]; HCC827, text): 100 to 500 nM
less potent than AZD9291 ([2]; H1975): ~ 60 fold
antiproliferative active concentration ([2]; H1975, text): 100 to 500 nM
POC (PIKFYVE): 94% of control
POC (MAPKAPK2): 100% of control
POC (SIK): 100% of control
POC (HCK): 14% of control
POC (GCN2(Kin.Dom.2+S808G)): 100% of control
POC (DAPK2): 100% of control
POC (MLK1): 86% of control
POC (CLK2): 63% of control
POC (KIT): 100% of control
POC (FLT3(D835Y)): 96% of control
POC (RET(V804L)): 99% of control
POC (FGR): 19% of control
POC (MEK6): 73% of control
